According to patent US20220331348A1, “METHOD OF PREPARING PENTACYCLIC TRITERPENOID SAPONINS AND DRUG COMPOSITION” (CHINA PHARMACEUTICAL UNIVERSITY, priority 2019, published 2022):
Marks after values point to notes of the source that are not given here.

Assays:
[1] = tested on: high fat diet induced NASH model rats; assay: High fat diet (HFD) induced NASH rat model; type: in vivo; conditions: for Liver TC / Liver TG / Serum LDL-c / Serum TG: HFD induced NASH model rats; for Liver TC / Liver TG / Serum LDL-c / Serum TG / ALT / AST: n = 8; for ALT / AST: serum of HFD induced NASH model rats
Experimental: Animal: 32 SD male rats of SPF level with 6 weeks old and 220 g were purchased from Beijing Vital River Laboratory Animal Technology Co., Ltd. All the animals maintained 12 h alternative circadian rhythm with free access to food.
Reagent: the ginsenoside Ro (I) was purchased from Shanghai Boka Chemistry Technology Co., Ltd; obeticholic acid (OCA) was purchased from Jiangsu Vcare PharmaTech Co., Ltd; high fat diets were purchased from Research Diets (D12492, 60 kcal %); and standard feeds were purchased from Research Diets (D12450B, 10 kcal %).
The rats were randomly divided into 4 groups based on the weight: a control group (CHOW), a high fat diet model group (HFD), a positive drug obeticholic acid (OCA, 5 mg/Kg) group (HFD+OCA) and a ginsenoside Ro (Ro for short, 5 mg/kg) group (HFD+Ro). The control group was fed with the standard feeds and drank water normally; and the rest groups were fed with the high fat diets, drank 10% aqueous sucrose solution for replacing the water and were modeled for 20 weeks.
After 20 weeks, the control group and the high fat diet model group were given with a CMC-Na solution with the volume fraction of 0.5% intragastrically every day, the HFD+OCA group was given with the obeticholic acid (5 mg/Kg) intragastrically every day, and the HFD+Ro was given with the ginsenoside Ro (5 mg/Kg) intragastrically every day. Administration was conducted for 8 weeks, during which, the control group was given with the standard feeds and drank the water normally, and the rest three groups were given with the high fat diets and drank 10% aqueous sucrose solution. The rats in each group were weighed every day, weights, hairs, feces and activity conditions were carefully observed and recorded.
The rats were deprived of food but not water for 12 h in advance; and the next morning, blood was taken from eye sockets, the rats were sacrificed, and livers were harvested. Right liver lobule tissues were fixed with 4% paraformaldehyde for HE stained slicing. A part of liver tissues were divided into 3 parts, which were snap-frozen in liquid nitrogen for subsequent detection of other indexes.
Whole blood was left to still standing for 2 h at room temperature, centrifugation was conducted for 15 min at 3000 rpm, and a serum was collected. 100 Mg of liver tissues were taken and homogenized with 0.9 mL of precooled normal saline, a homogenate was centrifuged for 15 min at 4° C. and 3000 rpm, and a supernatant was taken. Both of the serum and the supernatant were sent to Pathologic Department of Hospital of Integrated Traditional Chinese and Western Medicine in Jiangsu Province for determination of levels of triglyceride (TG), total cholesterol (TC), low density lipoprotein cholesterin (LDL-c) and high density lipoprotein cholesterol (HDL-c) in the serum and levels of the TG and the TC in the supernatant of the homogenate of the liver tissues with the full-automatic biochemical analyzer.
Pretreated tissues were sent to Google Biotechnology Co., Ltd for preparing HE stained slices and oil red stained slices.
Liver tissues preserved at −80° C. were put in the liquid nitrogen, about 10 mg of the liver tissues were quickly dissected out, 500 μL of precooled tissue lysate was added, and the tissues were homogenized with a homogenizer and then left to lyse on ice for 30 min; and centrifugation was conducted for 15min at 4° C. and 12000 rpm, […] of a supernatant was sucked to a clean EP tube, […] of the supernatant was taken for BCA protein quantification, […] of 5*loading buffer was added in the rest protein supernatant for denaturing by boiling, SDS-PAGE electrophoresis was conducted subsequently, the proteins were transferred onto a PVDF membrane, then incubation and elution of a relevant antibody were conducted, and finally, a chemiluminescence apparatus was employed for imaging analysis.

[2] = tested on: AMPK and mTOR signaling pathways in polycystic kidney epithelial cells; assay: Western blot of AMPK and proliferation-related signal molecules in polycystic kidney epithelial cells; type: cell-based, human; conditions: 10 μM, 48 h, Western blot (FIG. 16)
Text: Cell and reagent: complete media for human ADPKD cyst lining epithelial cell lines WT9-12 and DMEM were purchased from ATCC Company; fetal calf serums were purchased from Gibco Company; Cell Counting Kit-8 was purchased from DOJINDO Company; Click-iT® EdU Imaging Kits were purchased from Invitrogen™ Thermo Fisher Scientific Company; Caspase -3/CPP32 Colorimetric Assay Kit was purchased from BioVision Company; Annexin V/PI double-staining flow type cell apoptosis detection kits were purchased from Bender Company; and anti-Phospho-(AMPKa, mTOR, p70S6K, 4E-BP1) antibodies were purchased from Cell Signaling Technology Company.
Detection on protein expression with Western blot: cells in the control group and the treatment group (intervening the polycystic kidney epithelial cell with 10 μM of asperosaponin VI for 48 h) were collected, cells were lysed with a RIPA lysate for extraction of total proteins, the concentration of proteins was detected with a BCA method, and […] of sample proteins were taken for sample addition in sequence; after SDS-PAGE electrophoresis, the sample proteins were transferred onto PVDF membranes at a constant current (I=250 mA), were blocked for 1 h with 5% BSA and were incubated for 24 h with different primary antibodies; after the membranes were washed four times with TBST, incubation was conducted for 1.5 h at a normal temperature by using HRP-labeled second antibodies (1:10000); and after the membranes were washed four times with TBST, the proteins were developed with an ECL, and protein bands of various groups were subjected to gray scale analysis with an Image-J gel image analysis software.

[3] = HFD NASH rats, 5 mg/Kg intragastrically every day, 8 weeks (FIG. 4)
[4] = HFD NASH rats, 5 mg/Kg, 8 weeks, q-PCR (FIG. 6)
[5] = HFD NASH rats, 5 mg/Kg, 8 weeks, q-PCR (FIG. 7)
[6] = HFD NASH rats, summary in words

| Structure (SMILES) | inflammatory responses of the livers [1, 6] | lipid accumulation, caused by the high fat diets, of the rat livers [1, 6] | Liver TC ([1]; 5 mg/Kg) | Liver TG ([1]; 5 mg/Kg) | Serum LDL-c ([1]; 5 mg/Kg) | Serum TG ([1]; 5 mg/Kg) | ALT ([1]; 5 mg/Kg) | AST ([1]; 5 mg/Kg) | other results |
| --- | --- | --- | --- | --- | --- | --- | --- | --- | --- |
| CC1(C)CC[C@]2(C(=O)O[C@@H]3O[C@H](CO)[C@@H](O)[C@H](O)[C@H]3O)CC[C@]3(C)C(=CC[C@@H]4[C@@]5(C)CC[C@H](O[C@@H]6O[C@H](C(=O)O)[C@@H](O)[C@H](O)[C@H]6O[C@@H]6O[C@H](CO)[C@@H](O)[C@H](O)[C@H]6O)C(C)(C)[C@@H]5CC[C@]43C)[C@@H]2C1 [(I), ginsenoside Ro] | inhibits | significantly lower | – | – | – | – | – | – | level of the HDL-c in the serum [1, 3]: effectively lower; level of the LDL-c in the serum [1, 3]: effectively lower; level of the TC in the serum [1, 3]: effectively lower; contents of the TC in the livers ([1]; HFD NASH rats, 5 mg/Kg intragastrically every day, 8 weeks (FIG. 5)): significantly lowered; level of the TG in the serum ([1]; HFD NASH rats, 5 mg/Kg intragastrically every day, 8 weeks, vs HFD model group (FIG. 4)): significantly lower; level of the TG in the liver ([1]; HFD NASH rats, 5 mg/Kg intragastrically every day, 8 weeks, vs HFD model group (FIG. 5)): significantly lower; mRNA expression level of IL-6 in liver [1, 4]: significantly inhibit increase; mRNA expression level of IL-10 in liver [1, 4]: significantly inhibit increase; mRNA expression level of TNF-α in liver [1, 4]: significantly inhibit increase; mRNA expression level of TGF-β in liver [1, 5]: significantly inhibit increase; mRNA expression level of α-SMA in liver [1, 5]: significantly inhibit increase; liver fibrosis [1, 6]: inhibits |
| CC1(C)CC[C@]2(C(=O)O[C@@H]3O[C@H](CO[C@@H]4O[C@H](CO)[C@@H](O)[C@H](O)[C@H]4O)[C@@H](O)[C@H](O)[C@H]3O)CC[C@]3(C)C(=CC[C@@H]4[C@@]5(C)CC[C@H](O[C@@H]6OC[C@H](O)[C@H](O)[C@H]6O)[C@@](C)(CO)[C@@H]5CC[C@]43C)[C@@H]2C1 [(II), asperosaponin VI] | – | – | – | – | – | – | – | – | phosphorylation level of 4E-BP1 [2]: lowered; phosphorylation level of AMPKa [2]: increased; phosphorylation level of mTOR [2]: lowered; phosphorylation level of p70S6K [2]: lowered |
| C[C@H]1O[C@@H](O[C@H]2CC[C@@]3(C)[C@@H](CC[C@]4(C)[C@@H]3C=C[C@]35OC[C@@]6(CCC(C)(C)C[C@H]63)[C@@H](O)C[C@]54C)[C@]2(C)CO)[C@H](O)[C@@H](O[C@@H]2O[C@H](CO)[C@@H](O)[C@H](O)[C@H]2O)[C@H]1O [(VII), saikosaponin A] | inhibit | effectively lower | 0.518 ± 0.133** mmoL/gprot | 1.268 ± 0.294** mmoL/gprot | 47.06 ± 7.83* mg/dL | 20.43 ± 4.04* mg/dL | 71.36 ± 9.26* U/L | 115.24 ± 19.23*** U/L | – |
| C[C@H]1O[C@@H](O[C@H]2CC[C@@]3(C)[C@@H](CC[C@]4(C)[C@@H]3C=C[C@]35OC[C@@]6(CCC(C)(C)C[C@H]63)[C@H](O)C[C@]54C)[C@]2(C)CO)[C@H](O)[C@@H](O[C@@H]2O[C@H](CO)[C@@H](O)[C@H](O)[C@H]2O)[C@H]1O [(VIII), saikosaponin D] | inhibit | effectively lower | 0.509 ± 0.248** mmoL/gprot | 1.173 ± 0.606*** mmoL/gprot | 46.75 ± 7.35** mg/dL | 19.66 ± 5.12* mg/dL | 67.74 ± 8.29** U/L | 121.43 ± 9.28** U/L | – |
| C[C@@H]1CC[C@]2(C(=O)O[C@@H]3O[C@H](CO)[C@@H](O)[C@H](O)[C@H]3O)CC[C@]3(C)C(=CC[C@@H]4[C@@]5(C)CC[C@H](O[C@@H]6OC[C@H](O)[C@H](O)[C@H]6O)C(C)(C)[C@@H]5CC[C@]43C)[C@@H]2[C@]1(C)O [(XII), ziyuglycoside I] | inhibit | effectively lower | 0.547 ± 0.272* mmoL/gprot | 1.302 ± 0.443** mmoL/gprot | 48.52 ± 6.98* mg/dL | 18.32 ± 2.51** mg/dL | 74.03 ± 12.38* U/L | 120.91 ± 19.32** U/L | – |
| C[C@@H]1CC[C@]2(C(=O)O)CC[C@]3(C)C(=CC[C@@H]4[C@@]5(C)CC[C@H](O[C@@H]6OC[C@H](O)[C@H](O)[C@H]6O)C(C)(C)[C@@H]5CC[C@]43C)[C@@H]2[C@]1(C)O [(XIII), ziyuglycoside II] | inhibit | effectively lower | 0.503 ± 0.256** mmoL/gprot | 1.299 ± 0.387** mmoL/gprot | 45.36 ± 5.37** mg/dL | 19.41 ± 4.37* mg/dL | 69.28 ± 12.33** U/L | 122.16 ± 17.38** U/L | – |
